Reference: patent publication US20200290034A1, “COMPOSITION AND METHOD FOR REGENERATING CATION EXCHANGE RESINS” (Tygrus, LLC, priority 2019, published 2020)

What was measured:
[1] = Shelf-stability of stored samples; type: physicochemical; conditions: closed containers at standard temperature and 50% relative humidity
Description: The material produced in Example I is separated into individual samples. Some are stored in closed containers at standard temperature and 50% relative humidity to determine shelf-stability. Other samples are subjected to analytical procedures to determine composition. The test samples are subjected to FFTIR spectra analysis and titrated with hydrogen coulometry. The sample material has a molarity ranging from […] strength. The material has a gravimetric range greater than 1.15; with ranges greater than 1.9 in certain instances. The composition is stable and has a 1.87 to 1.78 molar material that contains 8 to 9% of the total moles of acid protons that are not charged balanced.

[2] = Excess hydrogen ion concentration and pH after admixing with water; conditions: 5 ml material admixed in 5 ml deionized and distilled water, standard temperature and pressure

## hydrogen (1+), triaqua-μ3-oxotri sulfate (1:1) [Example I]
[1]
  shelf-stability: stable
[2]
  excess hydrogen ion concentration: greater than 15 % by volume
  pH: 1
